Here are results for 2 molecules from article PMC11247081 (Signal Transduction and Targeted Therapy, 2024).

For data set [1] the following is noted: pre-clinical studies; cited from earlier work.
For data set [2] the following is noted: pre-clinical studies; cited from earlier work. This is another data set of the same source.
Data set [3] is described as follows: Pharmacokinetics of SHR-A1811, total antibody and free payload (non-compartmental). Particulars: for Tmax: median (range).
The subject of data set [4] is HER2-mutant NSCLC. The settings on record: pretreated patients with HER2-mutant NSCLC; cited from earlier work.
Setting [5] is: multiple dosing (cycle 3), SHR-A1811 […] (n=3), PK data available for 1 patient.
Where [6] appears, read: single dosing (cycle 1), SHR-A1811 8.0 mg/kg (n=3), mean (SD).

Turning to `CC[C@@]1(O)C(=O)OCc2c1cc1n(c2=O)Cc2c-1nc1cc(F)c(C)c3c1c2[C@@H](NC(=O)[C@H](O)C1CC1)CC3` [Free payload], the “membrane permeability compared with the payload of T-DXd” value in data set [1] is on record as “superior”. Besides, the “cytotoxicity compared with the payload of T-DXd” value in data set [2] is “superior”. Besides, the “exposure (Cmax, AUC0−21d, AUC0−t, and AUC0−∞) versus dose” value in data set [3] (after single dosing, over the tested dose range) was “increased in a dose-dependent manner”. Also, the “plasma exposure compared with ADC and TAb” value in data set [3] (all studied dose levels) is reported as “much lower”. Besides, the t1/2 in data set [3] (setting [5]) is 5.6 (NC) day; in data set [3] (multiple dosing (cycle 3), SHR-A1811 […] (n=3), mean (SD)) it was 5.7 (0.5) day; in data set [3] (multiple dosing (cycle 3), SHR-A1811 […] (n=10), mean (SD)) it was 6.5 (1.6) day; in data set [3] (multiple dosing (cycle 3), SHR-A1811 […] (n=41), mean (SD)), 6.3 (1.0) day; in data set [3] (setting [6]), 5.5 (1.1) day; in data set [3] (single dosing (cycle 1), SHR-A1811 […] (n=10), mean (SD)), 5.9 (1.1) day. For the same molecule, the t1/2 in data set [3] (single dosing (cycle 1), SHR-A1811 […] (n=41), mean (SD)) was 5.2 (0.6) day. For the same molecule, the Tmax in data set [3] (setting [5]) was 0.105 (0.1050-0.1050) day; in data set [3] (multiple dosing (cycle 3), SHR-A1811 […] (n=3)), 0.124 (0.1150-0.1320) day; in data set [3] (multiple dosing (cycle 3), SHR-A1811 […] (n=10)), 0.117 (0.1050-0.1190) day; in data set [3] (multiple dosing (cycle 3), SHR-A1811 […] (n=41)), 0.104 (0.0806-7.0200) day; in data set [3] (single dosing (cycle 1), SHR-A1811 8.0 mg/kg (n=3)), 1.0600 (0.3960-1.0600) day; in data set [3] (single dosing (cycle 1), SHR-A1811 […] (n=10)), 0.3990 (0.1470-1.0200) day. In addition, in data set [3] (single dosing (cycle 1), SHR-A1811 […] (n=41)), the Tmax was 0.3960 (0.0236-1.0600) day. Besides, in data set [3] (setting [6]), the AUC0-21d was 23.5 (7.4) day·ng/mL. For the same molecule, the AUC0-t in data set [3] (setting [6]) was 22.8 (6.2) day·ng/mL. In addition, the “AUC0-∞” value in data set [3] (setting [6]) is reported as 25.2 (7.6) day·ng/mL. Further, the Cmax in data set [3] (setting [6]) was 3.9 (1.0) ng/mL. Besides, the MRT in data set [3] (setting [6]) was 7.6 (1.8) day.

Regarding Trastuzumab emtansine [T-DM1], in data set [4], the ORR is given as 44% and the “median DoR” value is recorded as 4 months.
